According to patent publication US20180037605A1, “SYNTHETIC PEPTIDES AND ENZYMATIC FORMATION OF INTRACELLULAR HYDROGELS” (BRANDEIS UNIVERSITY, priority 2015, published 2018):
≈ marks a conversion by molar mass, not a printed value.

Assays:
[1] = system: SKOV3 cells; test: LC-MS of cell lysates and culture medium, SKOV3; assay type: cell-based
Experimental: (§1) After confirming that CES converts the precursor L-10 or D-10 into the hydrogelator L-12 or D-12, the stability of the precursors (L-10 or D-10) when incubated with the ovarian cancer cells was determined. After culturing the precursors with SKOV3 or A2780cis cells at 37° C. for 4 hours, the cell lysates and culture medium were collected for liquid chromatography-mass spectrometry (LC-MS) analysis and the intracellular concentrations of the precursors, the hydrogelators, and the relevant proteolyzed products were determined. After incubation with SKOV3 or A2780cis cells for 4 hours, more than 85% of the precursors (L-10 or D-10) turned into the corresponding hydrogelators (L-12 or D-12; see Table 1 below).

[2] = system: A375 cells; test: MTT cell viability, A375; assay type: cell-based; details: third day (72 h)
Experimental: (§3) The cells were seeded in exponential growth phase in a 96 well plate at a concentration of 1×10^4 cell/well with 100 μL of culture medium. Cells were allowed to attach for 24 hours at 37° C., 5% CO2 and then the culture medium was removed with the help of vacuum pump. Culture medium containing the precursors in gradient concentrations was added to each well (0 μM as control). 10 μL of 5 mg/mL MTT ((3-(4,5-Dimethylthiazol-2-yl)-2,5-diphenyltetrazolium bromide) was added to each well after 24 hours, 48 hours, and 72 hours incubation. After 4 hours incubation of the plated cells in dark place, 100 μL 10% SDS with 0.01 M HCl was added to each well to dissolve the purple formazan and to stop the reduction reaction. 24 hours later, the absorbance of the solution at 595 nm was finally measured with a DTX 880 Multimode Detector.

[3] = system: MES-SA/D×5 cells; test: MTT cell viability, MES-SA/D×5; assay type: cell-based; details: third day (72 h)
Experimental: as §3

[4] = system: co-cultured HS-5 and A2780cis cells; test: Cell viability of co-cultured HS-5 and A2780cis cells; assay type: cell-based; details: D-10 37 μg/mL
Experimental: (§2) 5×10^3 of SKOV3 cells (or A2780cis) and 5×10^3 HS-5 cells per well were seeded together and co-cultured in DMEM medium. Based on the results in FIG. 22, the concentrations of L-10 and D-10 at 73 and 37 μg/mL, respectively, were chosen. […] The inhibitory activities of L-10 and D-10 towards the co-culture agree well with their cytotoxicity against A2780cis, SKOV3, and H-5 cells. […] For example, on the first day, the cell viabilities of co-cultured HS-5 and SKOV3 cells and co-cultured HS-5 and A2780cis cells treated by D-10 (37 μg/mL) were 79% and 80%, respectively. While on the third day, the cell viabilities dropped to 44% and 57%, respectively. […] Contrary to the case of D-10, the efficacies of L-10 were almost the same between day two and day three (FIG. 25A), which agreed with the lower in vivo stability of L-10 than that of D-10.

[5] = system: U87MG cells; test: MTT cell viability, U87MG; assay type: cell-based; details: 72 hours incubation
Experimental: as §3

[6] = system: A2780 cells; test: MTT cell viability, A2780; assay type: cell-based
[7] = Systemic toxicity after intravenous injection in mice; details: 5 to 20 mg/kg, after 7 days
[8] = system: co-cultured HS-5 and SKOV3 cells; test: Cell viability of co-cultured HS-5 and SKOV3 cells; assay type: cell-based; details: D-10 37 μg/mL
Experimental: as §2

[9] = system: Saos-2 cells; test: MTT cell viability, Saos-2; assay type: cell-based; details: third day (72 h)
Experimental: as §3

[10] = system: MES-SA cells; test: MTT cell viability, MES-SA; assay type: cell-based; details: third day (72 h)
Experimental: as §3

[11] = system: T98G cells; test: MTT cell viability, T98G; assay type: cell-based; details: 72 hours incubation
Experimental: as §3

[12] = system: SKOV3 cells
Experimental: SKOV3 cells were seeded in exponential growth phase in a 96 well plate at a concentration of 1×10^4 cell/well with 100 μL of McCoy's 5A medium modified supplemented with 10% fetal bovine serum (FBS), 100 U/mL penicillin and 100 μg/ml streptomycin. The cells were allowed to attach to the wells for 24 hours at 37° C., 5% CO2. The culture medium was removed and 100 μL culture medium containing compounds (immediately diluted from fresh prepared stock solution of 10 mM) at gradient concentrations (0 μM as the control) was placed into each well. McCoy's 5A medium modified was regarded as blank. After culturing at 37° C., 5% CO2 for 24 hours, 48 hours, and 72 hours, 10 μL of 5 mg/mL MTT (3-(4,5-Dimethylthiazol-2-yl)-2,5-diphenyltetrazolium bromide) was added to each well, and the plated cells were incubated in dark place for 4 hours. 100 μL 10% SDS with 0.01 M HCl was added to each well to stop the reduction reaction and to dissolve the purple formazan. After incubation of the cells at 37° C. for overnight, the OD at 595 nm of the solution was measured in a microplate reader.
as §3

[13] = system: MCF-7 cells; test: MTT cell viability, MCF-7; assay type: cell-based; details: third day (72 h)
Experimental: as §3

[14] = mouse, in vivo, 20 mg/kg
[15] = system: PC-12 cells; test: MTT cell viability, PC-12 neuronal cells; assay type: cell-based, rat
Experimental: as §3

[16] = in vitro; details: human
Experimental: as §3

[17] = system: A2780cis cells; test: LC-MS of cell lysates, A2780cis; assay type: cell-based; details: 100 μm D-10
Experimental: as §1

[18] = system: A2780cis cells
[19] = system: HepG2 cells; test: MTT cell viability, HepG2; assay type: cell-based; details: third day (72 h)
Experimental: as §3

[20] = system: HS-5 cells; test: MTT cell viability, HS-5 stromal cells; details: 20 μM (D-10) and 50 μM (L-10)
Experimental: as §3

[21] = system: HS-5 cells; details: 72 h
Experimental: as §3

[22] = system: HeLa cells; test: MTT cell viability, HeLa; assay type: cell-based; details: third day (72 h)
Experimental: D-7 and D-10 (FIG. 12A), the enantiomers of L-7 and L-10, were prepared as described in Example 3. HeLa and SKOV3 cells were used in an MTT assay for assessing cytotoxicity of the peptides against these cancer cell lines.

[23] = system: HCC1937 cells; test: MTT cell viability, HCC1937; assay type: cell-based; details: third day (72 h)
[24] = SKOV3 cell lysates, 4 hours, 37° C., 20 μm D-10 or 50 μm L-10
[25] = combination of D-10 and CP, 72 hours

Q: Which results are given for O=C(CCC(=O)OCCNC(=O)[C@@H](Cc1ccccc1)NC(=O)[C@@H](Cc1ccccc1)NC(=O)Cc1ccc2ccccc2c1)NCCS(=O)(=O)O [D-10]?
A: cumulative intracellular concentration of precursor and hydrogelator relative to incubation concentration ([1]; 4 hours incubation): about 5 fold; Ratio of hydrogelator to precursor after 4 hours ([1]; SKOV3 cell lysates, 20 μm D-10 or 50 μm L-10): 6.75; Hydrogelator (12) intracellular concentration [1, 24]: 108 μm; Precursor (10) intracellular concentration [1, 24]: 16 μm; IC50, A375 [2]: 38 µg/mL (≈ 52 µM); IC50, MES-SA/D×5 [3]: 163 µg/mL (≈ 223 µM); cell viability of co-cultured HS-5 and A2780cis cells ([4]; first day): 80%; cell viability of co-cultured HS-5 and A2780cis cells ([4]; third day): 57%; IC50, U87MG [5]: 126 µg/mL (≈ 172 µM); viability of A2780 cells, combination with CP [6, 25]: 9%; IC50, A2780 ([6]; third day (72 h)): 37 µg/mL (≈ 50.6 µM); effect on weight and organ index of mice [7]: hardly affected; cell viability of co-cultured HS-5 and SKOV3 cells ([8]; first day): 79%; cell viability of co-cultured HS-5 and SKOV3 cells ([8]; third day): 44%; IC50, Saos-2 [9]: 44 µg/mL (≈ 60.2 µM); IC50, MES-SA [10]: 31 µg/mL (≈ 42.4 µM); IC50, T98G [11]: 145 µg/mL (≈ 198 µM); inhibition of SKOV3 ovarian cancer cells ([12]; 48 h, 50 μM): over 70%; IC50, SKOV3 ([12]; 72 h): 31 µg/mL (≈ 42.4 µM); inhibition of SKOV3 cells by mixture with CP ([12]; 72 h, 15 μg/mL): about 74%; viability of SKOV3 cells ([12]; human, 72 hours, 37 μg/mL): 10%; IC50, MCF-7 [13]: 25 µg/mL (≈ 34.2 µM); tolerability [14]: well tolerated; inhibition of PC-12 cells ([15]; 20 μM (D-10) and 50 μM (L-10)): hardly inhibited; IC50, PC-12 ([15]; third day (72 h)): 62 µg/mL (≈ 84.8 µM); viability at 3 day, 37 μg/mL [16]: ~80%; Ratio of hydrogelator to precursor after 4 hours [17]: 8.43; Hydrogelator (12) intracellular concentration ([17]; 4 hours, 37° C.): 582 μm; Precursor (10) intracellular concentration ([17]; 4 hours, 37° C.): 69 μm; inhibition of A2780cis cells by combination with CP [18, 25]: 70%; IC50, A2780cis ([18]; third day (72 h)): 36 µg/mL (≈ 49.3 µM); IC50, HepG2 [19]: 88 µg/mL (≈ 120 µM); inhibition of HS-5 cells [20]: hardly inhibited; IC50, HS-5 [21]: 50 µg/mL (≈ 68.4 µM); IC50, HeLa [22]: 27 µg/mL (≈ 36.9 µM); IC50, HCC1937 [23]: 26 µg/mL (≈ 35.6 µM)
